Experimental findings from patent US6846801B1, “Systemic administration of a therapeutic preparation” (AstraZeneca AB, priority 1993, dated 2005) are described below.

One series deals with rats. As to the kind of experiment: Rat model: powder inhaled, blood glucose compared with insulin formulations without enhancer. On Effect: key: +: significant decrease in blood glucose level; (+): moderate decrease in blood glucose level; −: no or very small decrease in blood glucose level. The class given is in vivo. As to conditions: for improvement in absorption of insulin: in vivo model. Here is the method:
Each of the compounds listed in Table III was tested for its ability to enhance uptake of insulin, and thus affect blood glucose levels, in a rat model. Various forms of insulin were employed: recombinant or semisynthetic human or bovine. Each formulation was prepared as above, drying and processing the insulin/enhancer or insulin/enhancer/lactose solution to produce an inhalable powder.
The powder was administered to rats by inhalation, and the blood glucose levels of the rats were subsequently monitored. These levels were compared to the corresponding values obtained from rats which had inhaled insulin formulations without enhancer.

Series [1] relates to CaCo-2 epithelial cell monolayer. As to the kind of experiment: In vitro transport of insulin and markers across CaCo-2 epithelial cell monolayer. The class given is in vitro ADME. Particulars: 60 min, 37° C. The source says:
A standard in vitro assay utilizing an epithelial cell line, CaCo-2 (available through the American Type Culture Collection (ATCC), Rockville, Md., USA), has been developed to assess the ability of various enhancer compounds to promote transport of insulin and other markers across an epithelial cell monolayer, as a model for the epithelial cell layer which functions in the lung to separate the alveolus from the pulmonary blood supply. In this assay, the enhancer and insulin or other marker are dissolved in aqueous solution at various proportions and/or concentrations, and applied to the apical side of the cell monolayer. After 60 min incubation at 37° C. and 95% RH (relative humidity), the amount of the marker on the basolateral side of the cells is determined: for example, by use of a radioactively labelled marker. […] This is true even when insulin is added to the enhancer/mannitol mixture (1:3 sodium caprate:insulin, by weight) (FIG. 9). This concentration of sodium caprate (16 mM) was also found to promote absorption of insulin across the cell monolayer. The amount of insulin which passed across the monolayer doubled in the presence of 16 mM sodium caprate, compared to the amount in the absence of any enhancer. […]
In general terms: Caco-2 monolayers are a common model of the intestinal barrier.

Where [2] appears, read: rats, inhaled powder, Enhancer:Insulin:lactose 2:4:94.
The mark [3] stands for this setting: rats, inhaled powder, Enhancer:Insulin:lactose 4:4:92.
Setting [4] is: tested as enhancer in the method of the invention, animal (rat) model.
[5] abbreviates: rats, inhaled powder, Enhancer:Insulin:lactose 25:75:0.

For the compound `CCCCCCCCCC(=O)OC[C@H](COP(=O)([O-])OCC[N+](C)(C)C)OC(=O)CCCCCCCCC` [Didecanoylphospatidylcholine], the Effect entry in the series with rats (rats, inhaled powder, Enhancer:Insulin:lactose 4:4:94) is “−”.

For `CCCCCCCC(=O)OCC(COP(=O)([O-])OCC[N+](C)(C)C)OC(=O)CCCCCCC` (stereo not shown) [Dioctanoylphosphatidylcholine], the Effect result with rats (setting [2]) was “(+)”.

`CCCCCCCCOC1O[C@H](CO)[C@@H](O)[C@H](O)[C@H]1O` (stereo partly shown) [Octylglucopyranoside]: the “performance as enhancer of insulin absorption in the lung (in words)” value (from here on “performance as enhancer”) in the series with rats (rat, in vivo) was “some absorption enhancing properties”. For the same compound, the Effect entry in the series on rats (setting [3]) is listed as “(+)”.

For the compound `CCCCCCCCCC(=O)[O-].[K+]` [Potassium caprate], the Effect result in the series with rats (rats, inhaled powder, Enhancer:Insulin:lactose 27:73:0) is “+”. For the same compound, the “performance as enhancer” value in the series with rats (setting [4]) is reported as “effective”.

On to `CCCCCCCC/C=C\CCCCCCCC(=O)[O-].[K+]` [Potassium oleate], for which the Effect result with rats (setting [3]) is “+”.

For `CCCCCCCCCC(=O)[O-].[Na+]` [Sodium caprate], the “improvement in absorption of insulin” value in the series on rats (insulin/sodium caprate 50/50 w/w (50% sodium caprate)) is “Significant improvement”; in the series with rats (insulin/sodium caprate 75/25 w/w (25% sodium caprate)), “Significant improvement”; with rats (insulin/sodium caprate 82.5/17.5 w/w (17.5% sodium caprate)) it was “intermediate”; in the series on rats (insulin/sodium caprate 90/10 w/w (10% sodium caprate)), “poor improvement”. Besides, the Effect entry in the series with rats (setting [3]) is reported as “+”; in the series on rats (rats, inhaled powder, Enhancer:Insulin:lactose 10:90:0) it was “(+)”; with rats (rats, inhaled powder, Enhancer:Insulin:lactose 17.5:82.5:0), “(+)”; in the series on rats (setting [5]) it was “+”. Further, in the series on rats (setting [4]), the “performance as enhancer” value was “perform well”. Further, the “amount of insulin which passed across the monolayer, compared to absence of any enhancer” value in series [1] (16 mM sodium caprate, apical to basolateral) is “doubled”. In addition, the “amount of marker (mannitol) which appears on the basolateral side” value in series [1] (at least up to 16 mM sodium caprate, FIG. 8) is listed as “dependent upon the concentration of enhancer used”.

For `CCCCCCCC(=O)[O-].[Na+]` [Sodium caprylate], in the series on rats (setting [5]), the Effect entry is “−”.

As for `C[C@H](CCC(=O)NCC(=O)[O-])[C@H]1CC[C@H]2[C@@H]3[C@H](O)C[C@@H]4C[C@H](O)CC[C@]4(C)[C@H]3C[C@H](O)[C@]12C.[Na+]` [Sodium glycocholate], the “performance as enhancer” value with rats (rat, in vivo) is listed as “effectively enhance insulin absorption in the lung”. For the same compound, the Effect result in the series with rats (setting [3]) is on record as “+”.

With `CCCCCCCCCCCC(=O)[O-].[Na+]` [Sodium laurate], the Effect result with rats (setting [5]) is “(+)”. Besides, the “performance as enhancer” value with rats (setting [4]) is “perform well”.

For `CCCCCCCCCCCCCC(=O)[O-].[Na+]` [Sodium myristate], in the series with rats (rats, inhaled powder, Enhancer:Insulin:lactose 30:70:0), the Effect result is listed as “+”. For the same compound, the “performance as enhancer” value in the series on rats (setting [4]) is given as “perform well”.

In the case of `C[C@H](CCC(=O)NCCS(=O)(=O)O)[C@H]1CC[C@H]2[C@@H]3[C@H](O)C[C@@H]4C[C@H](O)CC[C@]4(C)[C@H]3C[C@H](O)[C@]12C` [Sodium taurocholate], in the series with rats (rat, in vivo), the Effect result is “+” and the “performance as enhancer” value was “effectively enhance insulin absorption in the lung”.

`CC(=O)OC1CC2(C)C(CC(O)C3C4(C)CCC(O)C(C)C4CCC32C)C1=C(CCCC(C)C)C(=O)NCCS(=O)(=O)O` (stereo not shown) [Sodium taurodihydrofusidate]: in the series on rats (rat, in vivo), the “performance as enhancer” value is recorded as “effectively enhance insulin absorption in the lung”. Also, the Effect entry in the series on rats (setting [2]) is listed as “+”.

On to `C[C@H](CCC(=O)[O-])[C@H]1CC[C@H]2[C@@H]3[C@@H](O)C[C@@H]4C[C@H](O)CC[C@]4(C)[C@H]3CC[C@]12C.[Na+]` [Sodium ursodeoxycholate], for which the “performance as enhancer” value in the series with rats (rat, in vivo) was “effectively enhance insulin absorption in the lung”. Further, the Effect result with rats (setting [3]) is reported as “+”.

As to Dimethyl-β-cyclodextrin, in the series with rats (rat, in vivo), the “performance as enhancer” value is “absorption enhancing effect”. For the same compound, the Effect result in the series on rats (rats, inhaled powder, Enhancer:Insulin:lactose 75:25:0) is on record as “+”.

With Lysine caprate, the Effect result in the series with rats (rats, inhaled powder, Enhancer:Insulin:lactose 35:65:0) was “+”. Further, in the series on rats (setting [4]), the “performance as enhancer” value is listed as “effective”.

As for Lysophosphatidylcholine, in the series with rats (setting [3]), the Effect result was “+”. Further, the “performance as enhancer” value in the series on rats (setting [4]) is “effective enhancer”.
